Patent publication US20230346773A1, “USE OF PCSK9 INHIBITOR IN PREPARATION OF PRODUCT FOR TREATING MULTIPLE DISEASES” (priority 2020, published 2023)
Marks after values point to notes of the source that are not given here.

Tests used:
[1] = tested on: vitiligo guinea pig model caused by hydroquinone depigmentation; test: Vitiligo guinea pig model caused by hydroquinone depigmentation: counts of epidermal MC and melanin-granule-containing basal cells; format: in vivo; conditions: guinea pig skin after hydroquinone decolorization, drug once a day for 30 days, n = 10, x ± s; for Epidermal melanocyte count: average number of MCs in each 100 epidermal basal cells; for Basal cells containing melanin granules count: average number per 100 epidermal basal cells
Experimental: (§1) 10 in each group, Half male and female. Except for the blank control group, the other groups were smeared with 5% hydroquinone in the hair removal area for decolorization, 0.5 mL each time, twice a day, and the animals in the blank control group were smeared with an equal amount of normal saline every day. […] After modeling, the drug was administered in the above manner, once a day for 30 days.
After the observation, the mice were sacrificed, and the skin tissue on the back about 3 cm×3 cm was cut for histopathological examination.
The excised mouse skin tissue was fixed in 10% formalin for 1 hour, washed with running water for 3-4 min, and placed into a phosphate buffer solution (pH 7.4) containing 0.1% dihydroxyphenylalanine, and let stand at 37° C. for 1 hour. Then it was replaced with fresh Dopa reagent and left at 37° C. for 12 hours, rinsed with running water, and fixed with Bouin's solution continuously for 24 h. After the specimens were taken out, it was rinsed with running water for 4 hours, dehydrated, cleared in xylene, embedded in paraffin, deparaffinized to water, and stained with hematoxylin-eosin for contrast. Dehydrated and routinely mounted. After Dopa-oxidase staining, brownish-black staining was MC positive.
The excised mouse skin tissue was fixed in 10% formalin, dehydrated, cleared with xylene, embedded in paraffin, sectioned, deparaffinized to water, washed with distilled water several times, then stained with Lillie reagent, soaked with ferric chloride and potassium ferricyanide mixed solution for 15-20 minutes, then differentiated with 1% acetic acid aqueous solution for several minutes, washed with distilled water several times, then quickly dehydrated with 95% ethanol and absolute ethanol, cleared in xylene, and sealed with neutral gum. If melanin was dark green after Lillie reagent staining, it was positive.

tyrosinase = test: Tyrosinase intensity in skin tissue of vitiligo guinea pig model (immunohistochemistry, two-level scoring); format: in vivo; conditions: n = 10; for Color (units): score in brackets for staining colour; for Number of positive cells (units): score in brackets for tyrosinase-positive cells; for Total number (units): sum of positive-cell and colour scores; for Color: tyrosinase staining colour; for Number of positive cells: tyrosinase-positive cells
Experimental: as §1
The excised mouse skin tissue was fixed in 10% formalin dehydrated, cleared in xylene, embedded in paraffin, sectioned, deparaffinized to water, then 50 μL of peroxidase blocking agent (3% H2O2) was added to each section for 10 min to block endogenous peroxidase activity. The sections were immersed in 0.01 mol·L-1PBS buffer and microwaved for 10 min, added with 50 μL mouse anti-human tyrosinase monoclonal antibody, left at 37° C. for 60 min, then added with 50 μL of Elivision reagent, left at 37° C. for 30 min. The sections were then placed in freshly prepared DAB-H2O2 chromogenic solution for color development, rinsed with distilled water, stained with hematoxylin for contrast for 1 min, and sealed with neutral gum. The tyrosinase-positive product was located in the cytoplasm of the cell, shown as yellow or brownish-yellow granules or clumps in the cells under the microscope. The two-level scoring method was used to determine the results. If the number of positive cells was less than 5%, the score was 0; 5%˜25% is 1 point; 2 points for 25%˜50%; 3 points for 50%˜75%; >75% is 4 points. When classified according to staining intensity: 1 point for light yellow; 2 points for yellow or dark yellow; 3 points for brown or brownish yellow. If the sum of the two was less than 2, it was negative (−); 2-3 points as positive (+); 4-5 points as moderately positive (2+); 6-7 points as strongly positive (3+).

rabbit ear acne model = test: Rabbit ear acne model induced by 2% coal tar; format: in vivo, New Zealand rabbits; conditions: n = 10; for Skin thickness: rabbit ear epidermis; for Hair follicle area / Sebaceous gland diameter: rabbit ear; for Histological grading of acne: number of animals graded − / Histological grading of acne: number of animals graded 1+ / Histological grading of acne: number of animals graded 2+ / Histological grading of acne: number of animals graded 3+: right ear; for Histological grading of acne: number of animals graded −: grade 0: only loose keratinized cells in the infundibulum, without acne; for Histological grading of acne: number of animals graded 1+: grade 1: small amount of dense keratinized material, infundibulum not expanded; for Histological grading of acne: number of animals graded 2+: grade 2: moderately dense keratinized material extending to sebaceous glands, infundibulum expands; for Histological grading of acne: number of animals graded 3+: grade 3: extensive keratinized material, severe expansion of hair follicles
Text: The inner side of the right ear of the rabbits was taken as the observation area, the left ear of all rabbits was used as the self-negative control, and 95% alcohol was applied. The inner side of the right ear of the model group and the treatment group were smeared with 2% coal tar (Alfa Aesar China Company, 2% coal tar solution made with 95% alcohol), and evenly applied to the opening of the ear canal on the inner side of the rabbit ear with a sterile cotton swab in a range of about 2 cm×2 cm, once a day, 0.5 mL each time. Then the previous application was wiped with warm water. […] 18 hours after the last coating, the samples were sacrificed, fixed in 10% formaldehyde, embedded in paraffin, and stained with HE for histopathological analysis.
Histological grading standard of the acne model: […], according to histology. Grade 0 means that there are only loose keratinized cells in the infundibulum, without acne forming the “1”; grade 1: the skin on the surface of the rabbit ear is red, or a small amount of dense keratinized material is seen in the infundibulum of the hair follicle, and the infundibulum is not expanded “+”; grade 2: moderately dense keratinized material is seen in the infundibulum of the hair follicle, and it extends to the sebaceous glands, with the proliferation of sebaceous gland ducts, the infundibulum expands by “2+”; grade 3: extensive keratinized material in the hair follicle. Tight keratin embolism in hair follicles causes severe expansion of hair follicles, obvious hyperplasia of sebaceous duct epithelium, skin bulges and scars, and some sebaceous glands degenerate into “3+”.
Histopathological changes were observed under a microscope, and the thickness of 5 different epidermises on a slice was measured with the Biomias99 image analysis system, and the average value was calculated; the area of two hair follicles with the same position and the most complete structure and the diameter of four sebaceous glands were detected, and the average value of each was calculated, and then the data of the left and right external auditory canals of each group were subtracted to obtain the difference in the thickness of the epidermis, the difference in hair follicle area and the diameter of the sebaceous gland in the left and right ears of each rabbit.

Molecule | Epidermal melanocyte count [1] | Basal cells containing melanin granules count [1] | Color (units) (tyrosinase) | Number of positive cells (units) (tyrosinase) | Total number (units) (tyrosinase) | Color (tyrosinase) | Number of positive cells (tyrosinase) [%] | Skin thickness (rabbit ear acne model) [mm] | Hair follicle area (rabbit ear acne model) | Sebaceous gland diameter (rabbit ear acne model) [mm] | Histological grading of acne: number of animals graded − (rabbit ear acne model) | Histological grading of acne: number of animals graded 1+ (rabbit ear acne model) | Histological grading of acne: number of animals graded 2+ (rabbit ear acne model) | Histological grading of acne: number of animals graded 3+ (rabbit ear acne model)
CC(=O)Nc1ccc(C(=O)N2CCN(c3ccc(C)cc3)CC2c2ccccc2)cc1 (stereo not shown) [Compound group 4, SBC-110736] | 34.6 ± 2.6 | 36.8 ± 3.7 | 3 | 3 | 6 | Brownish-yellow | 30 | 0.2276 ± 0.0193 | 0.2853 ± 0.0879* mm^2 | 0.0561 ± 0.0362 | 5 | 2 | 3 | 0
Cc1cc(C(=O)C2=C(O)C(=O)N(CCCN3CCOCC3)C2c2ccncc2)ccc1OCc1ccccc1 (stereo not shown) [Compound group 3, SBC-115076] | 36.1 ± 2.8 | 36.9 ± 3.6 | 3 | 3 | 6 | Brownish-yellow | 30 | 0.2245 ± 0.0185 | 0.2836 ± 0.0851* mm^2 | 0.0542 ± 0.0346 | 5 | 3 | 2 | 0
Inclisran [RNA interference group 2] | 32.6 ± 2.8 | 36.1 ± 3.2 | 2 | 3 | 5 | Yellow | 30 | 0.1856 ± 0.0179 | 0.1836 ± 0.0856* mm^2 | 0.0561 ± 0.0423 | 6 | 3 | 1 | 0
O=C(c1ccc(-n2nnc3cccnc32)cc1)N(c1ncccc1Cl)[C@@H]1CCCNC1 [Compound group 2, PF 06446846] | 39.3 ± 3.2 | 38.8 ± 3.9 | 3 | 4 | 7 | Brownish-yellow | 40 | 0.1968 ± 0.0121 | 0.2353 ± 0.0812* mm^2 | 0.0467 ± 0.0313 | 7 | 2 | 1 | 0
ALN-PCS [RNA interference group 3] | 33.8 ± 2.7 | 35.3 ± 3.1 | 2 | 3 | 5 | Yellow | 30 | 0.1987 ± 0.0185 | 0.1921 ± 0.0933* mm^2 | 0.0615 ± 0.0476 | 5 | 4 | 1 | 0
Alirocumab [Monoclonal antibody group 3] | 43.5 ± 3.6 | 39.6 ± 3.7 | 4 | 3 | 7 | Brownish-yellow | 30 | 0.1547 ± 0.0149 | 0.1526 ± 0.0723* mm^2 | 0.0435 ± 0.0285 | 9 | 1 | 0 | 0
COc1ccc(CCC(=O)N(c2nccc3ccccc23)[C@@H]2CCCNC2)cc1 [Compound group 1, R-IMPP] | 33.6 ± 2.9 | 36.5 ± 3.8 | 2 | 3 | 5 | Brownish-yellow | 30 | 0.2433 ± 0.0196 | 0.2726 ± 0.0842* mm^2 | 0.0512 ± 0.0327 | 6 | 3 | 1 | 0
Evolocumab (antibody, chains of the INN, looked up, V domains shown, PCSK9 monoclonal antibody jointly developed by Amgen and Astellas, trade name Repatha) VH: EVQLVQSGAEVKKPGASVKVSCKASGYTLTSYGISWVRQAPGQGLEWMGWVSFYNGNTNYAQKLQGRGTMTTDPSTSTAYMELRSLRSDDTAVYYCARGYGMDVWGQGTTVTVSS VL: ESALTQPASVSGSPGQSITISCTGTSSDVGGYNSVSWYQQHPGKAPKLMIYEVSNRPSGVSNRFSGSKSGNTASLTISGLQAEDEADYYCNSYTSTSMVFGGGTKLTVL | 46.2 ± 3.8 | 41.2 ± 3.9 | 4 | 4 | 7 | Brownish-yellow | 40 | 0.1532 ± 0.0156 | 0.1533 ± 0.0562* mm^2 | 0.0432 ± 0.0267 | 9 | 1 | 0 | 0
